From patent US9408385B2, “Pesticidal composition comprising a pyridylethylbenzamide derivative and an insecticide compound” (priority 2006, dated 2016)
Values joined by “and” are separate entries in the source; they are usually repeats but may differ in a detail not shown here. Equal entries are not always repeated. Where two headings read alike, the source gives them in different places.

Columns and labels:
[1] = system: Phaedon cochleariae larvae; assay: Efficacy against Phaedon cochleariae larvae, cabbage leaf dip test; conditions: for mortality at 1 ppm: read-out: Mortality in % after 4d, dose 1 ppm
Myzus persicae = assay: Efficacy against Myzus persicae, cabbage leaf dip test; assay type: in vivo; conditions: foliar
Description: (§1) Solvent: 7 parts by weight of dimethylformamide

Aphis gossypii = assay: Efficacy against Aphis gossypii, cotton leaf dip test; assay type: in vivo; conditions: foliar, 24 h, after 1 d
Description: as §1

Gibberella zeae = assay type: cell-based; conditions: dose 3 ppm; 4 days of incubation, optical density
Phytophthora cryptogea = assay: Efficacy against Phytophthora cryptogea (Test in vitro - Microtest); conditions: dose 0.03 ppm; 4 days of incubation, optical density
Description: The microtest was performed in liquid medium with potato-dextrose broth (PDB) using microtitre plates.
A mycelium suspension of Phytophthora cryptogea was used for inoculation. After 4 days of incubation by darkness under shaking (10 Hrz), the optical density in each cavity was evaluated with the aid of a microtitre plate reader.

Pyricularia oryzae = assay type: cell-based; conditions: dose 0.015 ppm; 3 days of incubation
[2] = 24 h, after 1 d, read-out: Mortality in % after 1d
[3] = 144 h, after 6 d, read-out: Mortality in % after 6d
[4] = Phaedon cochleariae, in Brassica oleracea, foliar, 96 h, read-out: Mortality in % after 4d, dose 4 ppm, after 4 d
[5] = Phaedon cochleariae, in Brassica oleracea, foliar, 144 h, read-out: Mortality in % after 6d, dose 4 ppm, after 6 d
[6] = Phaedon cochleariae, in Brassica oleracea, foliar, 96 h, after 4 d
[7] = Phaedon cochleariae, in Brassica oleracea, foliar, 144 h, read-out: Mortality in % after 6d, dose 200 ppm, after 6 d

Molecule: 5-fluoro-1,3-dimethyl-N-[2-(1,3-dimethyl)-but-2-ol-yl]-1H-pyrazole-4-carboxamide [Compound A]
- Mortality in % after 4d ([1]; dose 200 ppm, after 4 d): 0%

Molecule: CN/C(=N\[N+](=O)[O-])NCc1cnc(Cl)s1 [Clothianidin, clothianidin]
- mortality at 0.16 ppm (Myzus persicae; [2]): 10%
- mortality at 0.8 ppm (Myzus persicae; [2]): 70%
- mortality at 0.16 ppm (Myzus persicae; [3]): 30%
- mortality at 0.8 ppm (Myzus persicae; [3]): 55%
- mortality at 4 ppm [1, 4]: 60%
- mortality at 0.8 ppm ([1]; Phaedon cochleariae, in Brassica oleracea, foliar, 144 h, read-out: Mortality in % after 6d, dose 0.8 ppm, after 6 d): 0%
- mortality at 4 ppm [1, 5]: 20%
- Mortality in % after 6d ([1]; dose 4 ppm, after 6 d): 40%

Molecule: O=C(NCCc1ncc(C(F)(F)F)cc1Cl)c1ccccc1C(F)(F)F [Compound 1, N-{2-[3-chloro-5-(trifluoromethyl)-2-pyridinyl]ethyl}-2-trifluoromethylbenzamide]
- mortality at 200 ppm (Aphis gossypii; dose 200 ppm): 10%
- mortality at 20 ppm (Myzus persicae; 24 h, dose 20 ppm, after 1 d): 0%
- mortality at 200 ppm (Myzus persicae; [2]): 0%
- mortality at 200 ppm (Myzus persicae; [3]): 0%
- Efficacy in % (Gibberella zeae): 41%
- mortality at 1 ppm [1, 6]: 0%
- mortality at 0.2 ppm ([1]; Phaedon cochleariae, in Brassica oleracea, foliar, 144 h, read-out: Mortality in % after 6d, dose 0.2 ppm, after 6 d): 0%
- mortality at 200 ppm [1, 7]: 0%
- Mortality in % after 4d ([1]; dose 200 ppm, after 4 d): 5% and 15%
- Efficacy in % (Phytophthora cryptogea): 13%

Molecule: Nc1nc(N)nc(NC2CC2)n1 [Cyromazine, cyromazine]
- mortality at 20 ppm ([1]; Phaedon cochleariae, in Brassica oleracea, foliar, 144 h, read-out: Mortality in % after 6d, dose 20 ppm, after 6 d): 5%

Molecule: CCOP(=O)(NC(C)C)Oc1ccc(SC)c(C)c1 (stereo not shown) [Fenamifos, fenamifos]
- Mortality in % after 6d ([1]; dose 20 ppm, after 6 d): 75%

Molecule: N#Cc1nn(-c2c(Cl)cc(C(F)(F)F)cc2Cl)c(N)c1[S+]([O-])C(F)(F)F (stereo not shown) [Fipronil, fipronil]
- mortality at 100 ppm (Aphis gossypii; dose 100 ppm): 40%

Molecule: N#Cc1c[nH]cc1-c1cccc2c1OC(F)(F)O2 [Fludioxonil, fludioxonil]
- mortality at 200 ppm (Myzus persicae; [2]): 0%
- mortality at 200 ppm [1, 7]: 5%

Molecule: O=[N+]([O-])NC1=NCCN1Cc1ccc(Cl)nc1 [Imidacloprid, imidacloprid]
- mortality at 0.16 ppm (Myzus persicae; [2]): 30%
- Efficacy in % (Gibberella zeae): 22%
- mortality at 4 ppm [1, 4]: 35%

Molecule: CC(C)C1CCC(Cc2ccc(Cl)cc2)C1(O)Cn1cncn1 (stereo not shown) [Ipconazole, ipconazole]
- mortality at 200 ppm (Myzus persicae; [2]): 0%

Molecule: OC(Cc1ccccc1Cl)(Cn1nc[nH]c1=S)C1(Cl)CC1 (stereo not shown) [Prothioconazole, prothioconazole]
- mortality at 200 ppm (Myzus persicae; [3]): 0%
- Efficacy in % (Pyricularia oryzae): 12%
- mortality at 1 ppm [1, 6]: 0%
- mortality at 200 ppm ([1]; Phaedon cochleariae, in Brassica oleracea, foliar, 96 h, read-out: Mortality in % after 4d, dose 200 ppm, after 4 d): 0%

Molecule: CC1=NNC(=O)N(/N=C/c2cccnc2)C1 [Pymetrozine, pymetrozine]
- mortality at 0.8 ppm (Myzus persicae; [2]): 30%

Molecule: CC(C)(C)C(O)(CCc1ccc(Cl)cc1)Cn1cncn1 (stereo not shown) [Tebuconazole, tebuconazole]
- mortality at 200 ppm (Myzus persicae; [3]): 0%

Molecule: N#C/N=C1\SCCN1Cc1ccc(Cl)nc1 [Thiacloprid, thiacloprid]
- mortality at 4 ppm [1, 5]: 25%

Molecule: CC(C)(C)C(O)C(Oc1ccc(Cl)cc1)n1cncn1 (stereo not shown) [Triadimenol, triadimenol]
- mortality at 200 ppm (Myzus persicae; [2]): 10%
- mortality at 0.4 ppm ([1]; Phaedon cochleariae, in Brassica oleracea, foliar, 144 h, read-out: Mortality in % after 6d, dose 0.4 ppm, after 6 d): 0%

Molecule: CON=C(C(=O)OC)c1ccccc1CON=C(C)c1cccc(C(F)(F)F)c1 [Trifloxystrobin, trifloxystrobin]
- mortality at 200 ppm (Myzus persicae; [3]): 20%

Molecule: spinosad
- Mortality in % after 4d ([1]; dose 0.8 ppm, after 4 d): 50%
- Efficacy in % (Phytophthora cryptogea): 5%
